Reference: PubChem BioAssay (NCI)
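1) Cells in 96-well plates. 2) Compound, 48 h, 5 concentrations. 3) Linear interpolation between surrounding doses. 4) Unreached endpoint = highest concentration. GI50 is the concentration that inhibits growth by half. Definition used: TGI = concentration required for complete inhibition of growth.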

Tests used:
Test in all cases: DTP human tumour cell line panel, 48 h
786-0 renal = test system: 786-0 renal
A498 renal = test system: A498 renal
A549 NSCLC = test system: A549 NSCLC
ACHN renal = test system: ACHN renal
BT-549 breast = test system: BT-549 breast
CAKI-1 renal = test system: CAKI-1 renal
CCRF-CEM leukemia = test system: CCRF-CEM leukemia
COLO 205 colon = test system: COLO 205 colon
DU-145 prostate = test system: DU-145 prostate
EKVX NSCLC = test system: EKVX NSCLC
HCC-2998 colon = test system: HCC-2998 colon
HCT-116 colon = test system: HCT-116 colon
HCT-15 colon = test system: HCT-15 colon
HL-60(TB) leukemia = test system: HL-60(TB) leukemia
HOP-62 NSCLC = test system: HOP-62 NSCLC
HOP-92 NSCLC = test system: HOP-92 NSCLC
HS 578T breast = test system: HS 578T breast
HT29 colon = test system: HT29 colon
IGROV1 ovarian = test system: IGROV1 ovarian
K-562 leukemia = test system: K-562 leukemia
KM12 colon = test system: KM12 colon
LOX IMVI melanoma = test system: LOX IMVI melanoma
M14 melanoma = test system: M14 melanoma
MALME-3M melanoma = test system: MALME-3M melanoma
MCF7 breast = test system: MCF7 breast
MDA-MB-231 breast = test system: MDA-MB-231 breast
MDA-MB-435 = test system: MDA-MB-435
MDA-MB-468 breast = test system: MDA-MB-468 breast
MOLT-4 leukemia = test system: MOLT-4 leukemia
NCI-H226 lung = test system: NCI-H226 lung
NCI-H23 lung = test system: NCI-H23 lung
NCI-H460 lung = test system: NCI-H460 lung
NCI-H522 lung = test system: NCI-H522 lung
NCI/ADR-RES ovarian = test system: NCI/ADR-RES ovarian
OVCAR-3 ovarian = test system: OVCAR-3 ovarian
OVCAR-4 ovarian = test system: OVCAR-4 ovarian
OVCAR-5 ovarian = test system: OVCAR-5 ovarian
OVCAR-8 ovarian = test system: OVCAR-8 ovarian
PC-3 prostate = test system: PC-3 prostate
RPMI-8226 leukemia = test system: RPMI-8226 leukemia
RXF 393 renal = test system: RXF 393 renal
SF-268 CNS = test system: SF-268 CNS
SF-295 CNS = test system: SF-295 CNS
SF-539 CNS = test system: SF-539 CNS
SK-MEL-2 melanoma = test system: SK-MEL-2 melanoma
SK-MEL-28 melanoma = test system: SK-MEL-28 melanoma
SK-MEL-5 melanoma = test system: SK-MEL-5 melanoma
SK-OV-3 ovarian = test system: SK-OV-3 ovarian
SN12C renal = test system: SN12C renal
SNB-19 CNS = test system: SNB-19 CNS
SNB-75 CNS = test system: SNB-75 CNS
SR leukemia = test system: SR leukemia
SW-620 colon = test system: SW-620 colon
T-47D breast = test system: T-47D breast
TK-10 renal = test system: TK-10 renal
U251 CNS = test system: U251 CNS
UACC-257 melanoma = test system: UACC-257 melanoma
UACC-62 melanoma = test system: UACC-62 melanoma
UO-31 renal = test system: UO-31 renal

COc1ccc(C(=O)COc2ccc(NC(=O)Nc3ccc(Cl)c(C(F)(F)F)c3)cc2)cc1
GI50 (786-0 renal): 4.57 µM | TGI (786-0 renal): 24.5 µM | GI50 (A498 renal): 2740 nM | TGI (A498 renal): 9.86 µM | GI50 (A549 NSCLC): 3.2 µM | TGI (A549 NSCLC): > 100 µM | GI50 (ACHN renal): 3.35 µM | TGI (ACHN renal): > 100 µM | GI50 (BT-549 breast): 4.38 µM | TGI (BT-549 breast): 40.8 µM | GI50 (CAKI-1 renal): 4.36 µM | TGI (CAKI-1 renal): > 100 µM | GI50 (CCRF-CEM leukemia): 3.71 µM | TGI (CCRF-CEM leukemia): > 100 µM | GI50 (COLO 205 colon): 3.08 µM | TGI (COLO 205 colon): > 100 µM | GI50 (DU-145 prostate): 5.78 µM | TGI (DU-145 prostate): > 100 µM | GI50 (EKVX NSCLC): 3.15 µM | TGI (EKVX NSCLC): 16.6 µM | GI50 (HCC-2998 colon): 3.8 µM | TGI (HCC-2998 colon): 34.2 µM | GI50 (HCT-116 colon): 3.87 µM | TGI (HCT-116 colon): > 100 µM | GI50 (HCT-15 colon): 3.09 µM | TGI (HCT-15 colon): > 100 µM | GI50 (HL-60(TB) leukemia): 3.09 µM | TGI (HL-60(TB) leukemia): 22.7 µM | GI50 (HOP-62 NSCLC): 6.69 µM | TGI (HOP-62 NSCLC): 96.4 µM | GI50 (HOP-92 NSCLC): 3.08 µM | TGI (HOP-92 NSCLC): 10 µM | GI50 (HS 578T breast): 2890 nM | TGI (HS 578T breast): 9.97 µM | GI50 (HT29 colon): 4.49 µM | TGI (HT29 colon): > 100 µM | GI50 (IGROV1 ovarian): 6 µM | TGI (IGROV1 ovarian): > 100 µM | GI50 (K-562 leukemia): 4.92 µM | TGI (K-562 leukemia): > 100 µM | GI50 (KM12 colon): 2880 nM | TGI (KM12 colon): 8.71 µM | GI50 (LOX IMVI melanoma): 3.2 µM | TGI (LOX IMVI melanoma): > 100 µM | GI50 (M14 melanoma): 2720 nM | TGI (M14 melanoma): > 100 µM | GI50 (MALME-3M melanoma): 2840 nM | TGI (MALME-3M melanoma): 18.2 µM | GI50 (MCF7 breast): 2600 nM | TGI (MCF7 breast): > 100 µM | GI50 (MDA-MB-231 breast): 3.81 µM | TGI (MDA-MB-231 breast): 26.1 µM | GI50 (MDA-MB-435): 3.63 µM | TGI (MDA-MB-435): > 100 µM | GI50 (MDA-MB-468 breast): 2800 nM | TGI (MDA-MB-468 breast): 8.67 µM | GI50 (MOLT-4 leukemia): 2840 nM | TGI (MOLT-4 leukemia): > 100 µM | GI50 (NCI-H226 lung): 3.61 µM | TGI (NCI-H226 lung): 21 µM | GI50 (NCI-H23 lung): 4.52 µM | TGI (NCI-H23 lung): > 100 µM | GI50 (NCI-H460 lung): 3.34 µM | TGI (NCI-H460 lung): > 100 µM | GI50 (NCI-H522 lung): 2960 nM | TGI (NCI-H522 lung): > 100 µM | GI50 (NCI/ADR-RES ovarian): 3.69 µM | TGI (NCI/ADR-RES ovarian): > 100 µM | GI50 (OVCAR-3 ovarian): 3.3 µM | TGI (OVCAR-3 ovarian): > 100 µM | GI50 (OVCAR-4 ovarian): 2870 nM | TGI (OVCAR-4 ovarian): 17.9 µM | GI50 (OVCAR-5 ovarian): 5.24 µM | TGI (OVCAR-5 ovarian): > 100 µM | GI50 (OVCAR-8 ovarian): 4.21 µM | TGI (OVCAR-8 ovarian): > 100 µM | GI50 (PC-3 prostate): 3.08 µM | TGI (PC-3 prostate): > 100 µM | GI50 (RPMI-8226 leukemia): 3.45 µM | TGI (RPMI-8226 leukemia): > 100 µM | GI50 (RXF 393 renal): 4.29 µM | TGI (RXF 393 renal): 15.3 µM | GI50 (SF-268 CNS): 4.04 µM | TGI (SF-268 CNS): > 100 µM | GI50 (SF-295 CNS): 3.35 µM | TGI (SF-295 CNS): 25.9 µM | GI50 (SF-539 CNS): 4.12 µM | TGI (SF-539 CNS): 26.4 µM | GI50 (SK-MEL-2 melanoma): 2860 nM | TGI (SK-MEL-2 melanoma): 34.4 µM | GI50 (SK-MEL-28 melanoma): 3.39 µM | TGI (SK-MEL-28 melanoma): 33.9 µM | GI50 (SK-MEL-5 melanoma): 3.14 µM | TGI (SK-MEL-5 melanoma): 19.7 µM | GI50 (SK-OV-3 ovarian): 8.07 µM | TGI (SK-OV-3 ovarian): > 100 µM | GI50 (SN12C renal): 4.8 µM | TGI (SN12C renal): > 100 µM | GI50 (SNB-19 CNS): 3.86 µM | TGI (SNB-19 CNS): 22.7 µM | GI50 (SNB-75 CNS): 1670 nM | TGI (SNB-75 CNS): 14.3 µM | GI50 (SR leukemia): 3.13 µM | TGI (SR leukemia): > 100 µM | GI50 (SW-620 colon): 5.3 µM | TGI (SW-620 colon): > 100 µM | GI50 (T-47D breast): 3.06 µM | TGI (T-47D breast): 92.3 µM | GI50 (TK-10 renal): 7.9 µM | TGI (TK-10 renal): > 100 µM | GI50 (U251 CNS): 3.71 µM | TGI (U251 CNS): 26.1 µM | GI50 (UACC-257 melanoma): 2950 nM | TGI (UACC-257 melanoma): > 100 µM | GI50 (UACC-62 melanoma): 2790 nM | TGI (UACC-62 melanoma): 9.38 µM | GI50 (UO-31 renal): 3.75 µM | TGI (UO-31 renal): > 100 µM
